Tests used:
TYK2 JH2 = molecular target: T1, TYK2 JH2 (Homo sapiens, UniProt P29597); assay: TYK2 JH2 binding assay (KINOMEscan KdELECT competitive binding); conditions: TYK2 JH2 domain, DiscoverX KINOMEscan KdELECT (Assay A); read-out: Biochemical TYK2_DiscoverX_JH2_BND_Kd
T1 construct: purchased DiscoverX (KINOMEscan KdELECT service); host or cells: E. coli BL21-derived (T7 phage display) or HEK-293
Outline: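 Test compounds were titrated in 11 three-fold steps against JH2 fragment captured on ligand-loaded magnetic beads, with 1 h incubation at room temperature and DMSO at 0.9%. Eluted kinase was quantified by qPCR, and Kd was fitted from the dose series.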

[1] = system: JAK1/TYK2 pSTAT5 (Tyr694/699) in THP-1 cell line; assay: IFNa-stimulated JAK1/TYK2 pSTAT5 (Tyr694/699) inhibition cellular assay, AlphaLISA; assay type: cell-based; conditions: Homo sapiens; THP-1 cells, IFNa-stimulated, AlphaLISA (Assay B); read-out: Cellular_THP1_IFNa-pSTATS_TYK2
Outline: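 The readout is AlphaLISA signal at 615 nm for phospho-STAT5 in THP-1 lysates after IFNa stimulation (added at 100 ng/mL, 30 min, 37 °C). Cells had compound for 1 h beforehand across eight 6-fold concentrations up to 10000 nM final. IC50s are 4PL fits with bottom and Hill slope constrained.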

T1 sequence (P29597 589-875 limits assumed): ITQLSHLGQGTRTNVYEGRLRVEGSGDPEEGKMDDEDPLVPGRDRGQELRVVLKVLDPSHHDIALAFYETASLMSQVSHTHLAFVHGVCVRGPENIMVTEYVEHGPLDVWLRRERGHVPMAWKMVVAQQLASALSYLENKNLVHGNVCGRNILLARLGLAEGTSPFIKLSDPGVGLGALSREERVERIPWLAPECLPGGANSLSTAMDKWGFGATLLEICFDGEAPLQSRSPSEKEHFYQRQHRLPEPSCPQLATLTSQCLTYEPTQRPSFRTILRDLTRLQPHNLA

SMILES | Kd (TYK2 JH2) | IC50 [1]
CNc1ncc(-c2nc3ccc(N4CCO[C@@H](C)C4)c(F)n3n2)c2cc(NC(=O)C3CC3)ncc12 [Example 508, (S)—N-(5-(5-fluoro-6-(2-methylmorpholino)-[1,2,4]triazolo[1,5-a]pyridin-2-yl)-8-(methylamino)-2,7-naphthyridin-3-yl)cyclopropanecarboxamide] | ≤ 0.1 µM | ≤ 0.5 µM
CNc1ncc(-c2nc3ccc(N4CCO[C@@H](C)C4)c(Cl)n3n2)c2cc(NC(=O)C3CC3)ncc12 [Example 509, (S)—N-(5-(5-chloro-6-(2-methylmorpholino)-[1,2,4]triazolo[1,5-a]pyridin-2-yl)-8-(methylamino)-2,7-naphthyridin-3-yl)cyclopropanecarboxamide] | ≤ 0.1 µM | ≤ 0.5 µM
CNc1ncc(-c2nc3ccc(OCCS(C)(=O)=O)cn3n2)c2cc(NC(=O)C3CC3)ncc12 [Example 510, N-(8-(methylamino)-5-(6-(2-(methylsulfonyl)ethoxy)-[1,2,4]triazolo[1,5-a]pyridin-2-yl)-2,7-naphthyridin-3-yl)cyclopropanecarboxamide] | ≤ 0.1 µM | ≤ 0.5 µM
[2H]C([2H])([2H])Nc1ncc(-c2nc3ccc(OC)cn3n2)c2cc(NC(=O)C3CC3)ncc12 [Example 511, N-(5-(6-methoxy-[1,2,4]triazolo[1,5-a]pyridin-2-yl)-8-((methyl-d3)amino)-2,7-naphthyridin-3-yl)cyclopropanecarboxamide] | ≤ 0.1 µM | ≤ 0.5 µM
[2H]C([2H])([2H])Nc1ncc(-c2nc3ccc(N4CCO[C@H](C)C4)cn3n2)c2cc(NC(=O)C3CC3)ncc12 [Example 512, (R)-N-(8-((methyl-d3)amino)-5-(6-(2-methylmorpholino)-[1,2,4]triazolo[1,5-a]pyridin-2-yl)-2,7-naphthyridin-3-yl)cyclopropanecarboxamide] | ≤ 0.1 µM | ≤ 0.5 µM
[2H]C([2H])([2H])Nc1ncc(-c2nc3ccc(N4CCC(F)(F)CC4)cn3n2)c2cc(NC(=O)C3CC3)ncc12 [Example 513, N-(5-(6-(4,4-difluoropiperidin-1-yl)-[1,2,4]triazolo[1,5-a]pyridin-2-yl)-8-((methyl-d3)amino)-2,7-naphthyridin-3-yl)cyclopropanecarboxamide] | ≤ 0.1 µM | ≤ 0.5 µM
CCNc1ncc(-c2nc3ccc(N4CCOCC4)cn3n2)c2cc(NC(=O)C3CC3)ncc12 [Example 514, N-(8-(ethylamino)-5-(6-morpholino-[1,2,4]triazolo[1,5-a]pyridin-2-yl)-2,7-naphthyridin-3-yl)cyclopropanecarboxamide] | ≤ 0.1 µM | ≤ 0.5 µM
CCNc1ncc(-c2nc3ccc(N4CCO[C@@H](C)C4)cn3n2)c2cc(NC(=O)C3CC3)ncc12 [Example 515, (S)-N-(8-(ethylamino)-5-(6-(2-methylmorpholino)-[1,2,4]triazolo[1,5-a]pyridin-2-yl)-2,7-naphthyridin-3-yl)cyclopropanecarboxamide] | ≤ 0.1 µM | ≤ 0.5 µM
CCNc1ncc(-c2nc3ccc(OC)cn3n2)c2cc(NC(=O)C3CC3)ncc12 [Example 516, N-(8-(ethylamino)-5-(6-methoxy-[1,2,4]triazolo[1,5-a]pyridin-2-yl)-2,7-naphthyridin-3-yl)cyclopropanecarboxamide] | ≤ 0.1 µM | ≤ 0.5 µM
CCNc1ncc(-c2nc3ccc(C)cn3n2)c2cc(NC(=O)C3CC3)ncc12 [Example 517, N-(8-(ethylamino)-5-(6-methyl-[1,2,4]triazolo[1,5-a]pyridin-2-yl)-2,7-naphthyridin-3-yl)cyclopropanecarboxamide] | ≤ 0.1 µM | ≤ 0.5 µM
O=C(Nc1cc2c(-c3nc4ccc(N5CCOCC5)cn4n3)cnc(NC3CC3)c2cn1)C1CC1 [Example 518, N-(8-(cyclopropylamino)-5-(6-morpholino-[1,2,4]triazolo[1,5-a]pyridin-2-yl)-2,7-naphthyridin-3-yl)cyclopropanecarboxamide] | ≤ 0.1 µM | ≤ 0.5 µM
O=C(Nc1cc2c(-c3nc4ccccn4n3)cnc(NC3CC3)c2cn1)C1CC1 [Example 519, N-(5-([1,2,4]triazolo[1,5-a]pyridin-2-yl)-8-(cyclopropylamino)-2,7-naphthyridin-3-yl)cyclopropanecarboxamide] | ≤ 0.1 µM | > 0.5 µM
CNc1ncc(-c2nc3ccc(OC)cn3n2)c2cc(NC(=O)[C@H]3C[C@H]3C)ncc12 [Example 520, (1S,2R)—N-(5-(6-methoxy-[1,2,4]triazolo[1,5-a]pyridin-2-yl)-8-(methylamino)-2,7-naphthyridin-3-yl)-2-methylcyclopropane-1-carboxamide] | ≤ 0.1 µM | ≤ 0.5 µM
CNc1ncc(-c2nc3ccc(OC)cn3n2)c2cc(Nc3ccccn3)ncc12 [Example 523, 4-(6-methoxy-[1,2,4]triazolo[1,5-a]pyridin-2-yl)-N^1-methyl-N^6-(pyridin-2-yl)-2,7-naphthyridine-1,6-diamine] | ≤ 0.1 µM | ≤ 0.5 µM
CNc1ncc(-c2nc3ccc(OC)cn3n2)c2cc(Nc3cccc(OC)n3)ncc12 [Example 524, 4-(6-methoxy-[1,2,4]triazolo[1,5-a]pyridin-2-yl)-N^6-(6-methoxypyridin-2-yl)-N^1-methyl-2,7-naphthyridine-1,6-diamine] | ≤ 0.1 µM | ≤ 0.5 µM
CNc1ncc(-c2nc3ccc(N4CCOCC4)cn3n2)c2cc(NC(=O)[C@H]3C[C@H]3C)ncc12 [Example 525, (1S,2R)-2-methyl-N-(8-(methylamino)-5-(6-morpholino-[1,2,4]triazolo[1,5-a]pyridin-2-yl)-2,7-naphthyridin-3-yl)cyclopropane-1-carboxamide] | ≤ 0.1 µM | ≤ 0.5 µM
CNc1ncc(-c2nc3ccc(N4CCOCC4)cn3n2)c2cc(NC(=O)C3(C)CC3)ncc12 [Example 526, 1-methyl-N-(8-(methylamino)-5-(6-morpholino-[1,2,4]triazolo[1,5-a]pyridin-2-yl)-2,7-naphthyridin-3-yl)cycloproapne-1-carboxamide] | ≤ 0.1 µM | ≤ 0.5 µM
CNc1ncc(-c2nc3ccc(N4CCOCC4)cn3n2)c2cc(NC(=O)C3(F)CC3)ncc12 [Example 527, 1-fluoro-N-(8-(methylamino)-5-(6-morpholino-[1,2,4]triazolo[1,5-a]pyridin-2-yl)-2,7-naphthyridin-3-yl)cyclopropane-1-carboxamide] | ≤ 0.1 µM | ≤ 0.5 µM
CNc1ncc(-c2nc3ccc(N4CCOCC4)cn3n2)c2cc(NC(=O)C3CCC3)ncc12 [Example 528, N-(8-(methylamino)-5-(6-morpholino-[1,2,4]triazolo[1,5-a]pyridin-2-yl)-2,7-naphthyridin-3-yl)cyclobutanecarboxamide] | ≤ 0.1 µM | ≤ 0.5 µM
CNc1ncc(-c2nc3ccc(N4CCOCC4)cn3n2)c2cc(NC(=O)C3(OC)CC3)ncc12 [Example 529, 1-methoxy-N-(8-(methylamino)-5-(6-morpholino-[1,2,4]triazolo[1,5-a]pyridin-2-yl)-2,7-naphthyridin-3-yl)cyclopropane-1-carboxamide] | ≤ 0.1 µM | ≤ 0.5 µM
CNc1ncc(-c2nc3ccc(N4CCOCC4)cn3n2)c2cc(NC(=O)[C@@H]3C[C@@H]3C)ncc12 [Example 530, (1R,2S)-2-methyl-N-(8-(methylamino)-5-(6-morpholino-[1,2,4]triazolo[1,5-a]pyridin-2-yl)-2,7-naphthyridin-3-yl)cycloproapne-1-carboxamide] | ≤ 0.1 µM | ≤ 0.5 µM
CNc1ncc(-c2nc3ccc(N4CCOCC4)cn3n2)c2cc(NC(=O)C3CC34CC4)ncc12 (stereo not shown) [Example 531, N-(8-(methylamino)-5-(6-morpholino-[1,2,4]triazolo[1,5-a]pyridin-2-yl)-2,7-naphthyridin-3-yl)spiro[2.2]pentane-1-carboxamide] | ≤ 0.1 µM | ≤ 0.5 µM
CNc1ncc(-c2nc3ccc(N4CCOCC4)cn3n2)c2cc(Nc3ccccn3)ncc12 [Example 536, N^1-methyl-4-(6-morpholino-[1,2,4]triazolo[1,5-a]pyridin-2-yl)-N^6-(pyridin-2-yl)-2,7-naphthyridine-1,6-diamine] | ≤ 0.1 µM | ≤ 0.5 µM
CNc1ncc(-c2nc3ccc(N4CCOCC4)cn3n2)c2cc(Nc3ncccc3F)ncc12 [Example 537, N^6-(3-fluoropyridin-2-yl)-N^1-methyl-4-(6-morpholino-[1,2,4]triazolo[1,5-a]pyridin-2-yl)-2,7-naphthyridine-1,6-diamine] | ≤ 0.1 µM | ≤ 0.5 µM
CNc1ncc(-c2nc3ccc(N4CCOCC4)cn3n2)c2cc(Nc3ccc(C(C)(C)O)cn3)ncc12 [Example 538, 2-(6-((8-(methylamino)-5-(6-morpholino-[1,2,4]triazolo[1,5-a]pyridin-2-yl)-2,7-naphthyridin-3-yl)amino)pyridin-3-yl)propan-2-ol] | ≤ 0.1 µM | ≤ 0.5 µM
CNc1ncc(-c2nc3ccc(N4CCO[C@@H](C)C4)cn3n2)c2cc(NC(=O)[C@H]3C[C@H]3C)ncc12 [Example 539, (1S,2R)-2-methyl-N-(8-(methylamino)-5-(6-((S)-2-methylmorpholino)-[1,2,4]triazolo[1,5-a]pyridin-2-yl)-2,7-naphthyridin-3-yl)cyclopropane-1-carboxamide] | ≤ 0.1 µM | ≤ 0.5 µM
